Test results: US20220030868A1, “FUNGICIDAL HALOMETHYL KETONES AND HYDRATES” (FMC CORPORATION, priority 2018, published 2022)

Tests used:
[1] = system: Puccinia recondita f. sp. tritici; assay: Test B: test suspension sprayed on wheat seedlings one day before inoculation with Puccinia recondita f. sp. tritici spores (wheat leaf rust), disease rating; format: in vivo; details: 100 = 100% disease control, 0 = no control
Procedure, shortened: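 Wheat seedlings were sprayed to run-off with compound suspended in 50/50 acetone/water containing 250 ppm PEG400, then inoculated with P. recondita f. sp. tritici spores the next day. Plants were held 24 h in saturated air at 20 °C, then 6 days in a growth chamber at 20 °C. Disease control was rated 0–100% relative to controls, with some entries run at 50 or 10 ppm.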

[2] = system: Phakopsora pachyrhizi; assay: Test A: test suspension sprayed on soybean seedlings one day before inoculation with Phakopsora pachyrhizi spores (Asian soybean rust), visual disease rating; format: in vivo; details: 100 = 100% disease control, 0 = no control
Procedure, shortened: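 Soybean seedlings were sprayed to run-off with test suspension (acetone 3% of volume, acetone/water 50/50, 250 ppm PEG400) and inoculated with rust spores one day later. Incubation: 24 h saturated atmosphere at 22° C, then 8 days growth chamber at 22° C; scores 0–100 relative to untreated controls.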

SMILES | Test B rating (disease control) ([1]; 10 ppm test suspension) [%] | Test A rating (disease control) ([2]; 10 ppm test suspension) [%] | also measured
CCOC(=O)c1cnn(Cc2ccc(OC(F)(F)C(O)(O)C(F)(F)F)cc2)c1 [Compound 227] | 55 | 99 | 
CCO/C(=C\Oc1cccc(Cn2cc(C(=O)OC)cn2)c1)C(F)(F)F [Compound 330, methyl 1-[[3-[[(1Z)-2-ethoxy-3,3,3-trifluoro-1-propen-1-yl]oxy]phenyl]methyl]-1H-pyrazole-4-carboxylate] |  |  | pest or weed control at 10 ppm ([1]; 10 ppm test suspension): 0%; pest or weed control at 10 ppm ([2]; Phakopsora pachyrhizi, 10 ppm test suspension): 100%
CCO/C(=C\Oc1cccc(Cn2cc(C(=O)OCC3CC3)cn2)c1)C(F)(F)F [compound 341] | 0 | 100 | 
CCO/C(=C\Oc1ccc(Cc2ccnc(SC)n2)cc1)C(F)(F)F [compound 308] |  |  | Test B rating (disease control) ([1]; 50 ppm test suspension): 0%; Test A rating (disease control) ([2]; 50 ppm test suspension): 25%
O=C(NCC(F)(F)F)c1cnc(Cc2ccc(OCC(O)(O)C(F)(F)F)cc2)o1 [Compound 274] | 0 | 48 | 
CCO/C(=C\Oc1ccc(Cc2ncc(C(=O)NCC3CC3)s2)cc1)C(F)(F)F [compound 254] | 0 | 73 | 
CCO/C(=C\Oc1cccc(Cn2cc(C(=O)OCCOC)cn2)c1)C(F)(F)F [compound 340] | 0 | 100 | 
CCO/C(=C\Oc1ccc(-c2noc(C(F)(F)F)n2)cc1)C(F)(F)F [compound 143] | 0 | 0 | 
CCO/C(=C\Oc1ccc(Cn2cccn2)cc1)C(F)(F)F [compound 151] | 0 | 0 | 
O=C(OCCCCl)c1cnn(Cc2ccc(OCC3(C(F)(F)F)OCCO3)cc2)c1 [compound 161] | 0 | 100 | 
CCO/C(=C\Oc1ccc(S(C)(=O)=O)cc1)C(F)(F)F [compound 60] | 0 | 0 | 
CCO/C(=C\Oc1ccc(Cn2cnc(C(=O)OC)c2)cc1)C(F)(F)F [compound 86] | 0 | 99 | 
CCO/C(=C\Oc1ccc(Cn2cnc(C#N)n2)cc1)C(F)(F)F [Compound 82] | 0 | 97 | 
CCOC(=O)c1cnn(Cc2ccc(O/C=C(\OCC)C(F)(F)F)cc2)n1 [compound 119] | 0 | 97 | 
C=C(C)COC(=O)c1cnn(Cc2ccc(O/C=C(\OCC)C(F)(F)F)cc2)c1 [compound 242] | 0 | 100 | 
CCOC(=O)C1CCN(Cc2ccc(O/C=C(\OCC)C(F)(F)F)cc2)CC1 [compound 268] | 0 | 99 | 
N#CCOC(=O)c1cnn(Cc2ccc(OCC3(C(F)(F)F)OCCO3)cc2)c1 [compound 172] | 0 | 100 | 
COC(=O)NN=Cc1ccc(OCC2(C(F)(F)F)OCCO2)cc1 [compound 27] | 0 | 0 | 
CCOC(=O)c1cnn(Cc2ccc(OC(F)(F)C3(C(F)(F)F)OCCO3)cc2)c1 [compound 319] |  |  | Test B rating (disease control) ([1]; 50 ppm test suspension): 41%; Test A rating (disease control) ([2]; 50 ppm test suspension): 100%
CCO/C(=C\Oc1cccc(Cn2cc(C(=O)O)cn2)c1)C(F)(F)F [compound 323] |  |  | Test B rating (disease control) ([1]; 50 ppm test suspension): 0%; Test A rating (disease control) ([2]; 50 ppm test suspension): 100%
CCO/C(=C\Oc1ccc(C(=O)NC)cc1)C(F)(F)F [compound 105] | 68 | 0 | 
CCO/C(=C\Oc1ccc(Cn2nc(C)cc2C)cc1)C(F)(F)F [compound 152] | 0 | 0 | 
CCO/C(=C\Oc1ccc(C(N)=O)cc1)C(F)(F)F [compound 99] | 80 | 0 | 
